Data from patent US9365597B2, “Mitochondria-targeted inhibitors of cytochrome c peroxidase for protection from apoptosis” (Brock University, priority 2011, dated 2016).

Tests used:
[1] = test system: mouse lung endothelial cells; experiment: Rotenone-induced apoptosis in mouse lung endothelial cells (PS externalization); type: cell-based; settings: 2 μM rotenone, TPP-IOA 2.5, 5 μM, 48 h
Description: Mouse embryonic cells (courtesy of Dr X. Wang, University of Texas, Dallas) were cultured in Dulbecco's Modified Eagle Medium (DMEM) supplemented with 15% fetal bovine serum (FBS), 25 mM Hepes, 50 mg per liter uridine, 110 mg per liter pyruvate, 2 mM glutamine, 1× nonessential amino acids, 50 μM β-mercaptoethanol, 0.5×10^6 Upper liter mouse leukaemia inhibitory factor, 100 Upper liter penicillin, and 100 mg per liter streptomycin in a humidified atmosphere of 5% CO2, 95% air at 37° C. Mouse lung endothelial cells were obtained as previously described^29. Briefly, lungs were flushed with Hank's balanced salt solution (HBSS) containing 10 U ml^−1 heparin, then homogenized and digested in type I collagenase using a gentle MACs dissociator (Miltenyi). […] At approximately passage 2, cells were incubated with fluorescently labelled diacetylated low-density lipoprotein (LDL) followed by fluorescence-activated cell sorting (FACS) for further purification. The enriched PECAM and diacetylated LDL population was sub-cultured on a collagen/gelatin matrix in 2% O2, 5% CO2, 93% nitrogen in a Coy Hypoxic Glove Box/Chamber in Opti-MEM (Gibco), 10% FBS, 2 mM glutamine, 0.2% retinal-derived growth factor (Vec Technologies), 10 U ml^−1 heparin, 0.1 mM non-essential amino acid supplement (Gibco) and 55 μM β-mercaptoethanol (Counted as passage 3). […]

[2] = Hydrolysis of TPP-IOA by cytosol and mitochondrial fractions of mouse embryonic cells (HPLC); type: in vitro ADME
Description: Incubations were carried out in 0.1 M phosphate buffer (pH 7.0) for 25 min at 37° C.; and reaction was stopped with CH3CN denatured proteins were centrifuged, and the supernatant was subjected to HPLC analysis. The volume of samples was 1 ml.
To test this, assessments of esterase activity of mitochondria and cytosolic fractions isolated from mouse embryonic cells were performed based on HPLC measurements of TPP-IOA (FIG. 4). […] Thus, both TPP-IOA and its de-esterifed form, IOA, could be present in mitochondria of mouse embryonic cells.

[3] = Compartmentalization of TPP-IOA in mouse embryonic cells and subcellular fractions (HPLC, ESI-MS); type: in vitro ADME
Description: Mitochondrial fractions were isolated by differential centrifugation. Briefly, cells were suspended in mitochondria isolation buffer (pH 7.4; MIB) containing mannitol (210 mM), sucrose (70 mM), HEPES (10 mM), EDTA (1 mM) and protease inhibitor cocktail. Cells were lysed by Dounce homogenization. Unbroken cells, nuclei and debris were removed by 5 min centrifugation at 600×g at 4° C. Mitochondria, obtained by centrifugation at 10,000×g (10 min), were washed once with MIB.
Mouse embryonic cells (2×10^6) were seeded in 100 mm cell culture dishes and let attached overnight. Thereafter, the cells were incubated with TPP-IOA (10 μM) in PBS at 37° C. for 30 min, washed with PBS (2×5 mL), and collected by trypsinization. Mitochondria were isolated as described above. In mitochondria, TPP-IOA was analyzed by HPLC after precipitation of proteins with CH3CN (final concentration, 70%; incubation time, 15 min at 4° C.; centrifugation, 5 min at 10,000×g). TPP-IOA from cytosolic fractions was extracted by following the protocol of Folch et al.^37 and then re-dissolved in a minimal volume of methanol. […] Detection of TPP-IOA was performed with a SPD-M10A photodiode array detector (Shimadzu, Kyoto, Japan) following the specific UV spectrum of the triphenylphosphonium function (λmax=224, 264 and 274 nm; FIG. 4A, Inset). TPP-IOA was eluted as single peak with retention time of 4 min.

CCCCCCC(C/C=C\CCCCCCCC(=O)OCCC[P+](c1ccccc1)(c1ccccc1)c1ccccc1)n1ccnc1.[Br-] (centres unmarked) [TPP-IOA]
inhibition of rotenone-induced apoptosis [1]: effectively inhibited apoptosis
hydrolysis rate in mitochondria ([2]; 1 mg protein/ml, pH 7.0, 37° C.): comparable to that in the cytosolic fraction
hydrolysis of the ester bond by endogenous esterases ([2]; mitochondria and cytosol of mouse embryonic cells): hydrolysis of TPP-IOA takes place in both mitochondria and the cytosol
concentration of TPP-IOA in mitochondria ([3]; assuming mitochondria are ~15-25% of cell volume): ~5000 µM
subcellular distribution of TPP-IOA ([3]; mouse embryonic cells, 10 μM, 30 min): most of the TPP-IOA was present in mitochondria
